Experimental data from US8466311B2, “Neuroprotective compositions and methods” (Sanford-Burnham Medical Research Institute, priority 2006, dated 2013).

Assays:
[1] = test system: cAMP-responsive element (CRE); assay: Enhancer element luciferase reporter p3xCREluc; assay type: cell-based; conditions: NEPP11 2 μM
Experimental: (§1) Because the E1 and E2 regions also contain other enhancer elements, we tested the effects of NEPP11 (2 μM) on the expression of luciferase activity derived from these elements, including the cAMP-responsive element (CRE; p3xCREluc), AP-1 binding site (p3xAP1luc), NF-κB binding site (p3xNF-κBluc), NFAT-binding site (p3xNFATluc), ETS-binding site (p3xETSluc), and MEF2-binding site (p3xMEF2luc).

[2] = test system: AP-1 binding site; assay: Enhancer element luciferase reporter p3xAP1luc; assay type: cell-based; conditions: NEPP11 2 μM
Experimental: as §1

[3] = test system: Nrf2; assay: Intracellular distribution of Nrf2 protein in COS7 cells (immunofluorescence); assay type: cell-based; conditions: 10 μM CA
Experimental: Immunocytochemistry. Cultures were fixed with 3% paraformaldehyde at room temperature for 20 min. After three washes in PBS, the cells were permeabilized with 0.3% Triton X-100 for 5 min. After three additional washes in PBS, the cells were incubated at 4° C. overnight with primary antibodies. They were then washed three times in PBS containing 0.2% Tween 20 (PBS-T), and next incubated with secondary antibodies for 1 h at room temperature. Thereafter, the cells were again washed, and their nuclei stained with Hoechst 33,258 (5 μg/ml) or with DAPI (1 μg/ml) for 5 min. Stained preparations were mounted and examined by epifluorescence microscopy. The following primary antibodies were used: anti-Nrf2 antibody, anti-MAP2 and anti-NeuN antibodies to identify neurons (dendrites and nuclei, respectively), and anti-S100β antibody to identify astrocytes. As secondary antibodies, we used FITC-conjugated anti-mouse IgG, rhodamine-conjugated anti-mouse IgG, or rhodamine-conjugated streptavidin.
After binding of the electrophilic quinone-form of CA to Keap1 protein, activation of the Keap1/Nrf2 pathway requires nuclear translocation of Nrf2 (Talalay, Biofactors 12:5-11, 2000; Padmanabham et al., Mol. Cell 21:689-700, 2006; Itoh et al., Free Radic. Biol. Med. 36:1208-1213, 2004). Thus, we next examined the intracellular distribution of Nrf2 protein in COS7 cells by immunofluorescence.

[4] = test system: phase 2 genes (GCL-L, GCL-H, HO-1, NQO1); assay: Phase 2 gene induction in PC12h cells (RT-PCR); assay type: cell-based; conditions: 10 μM CA, 6-24 h
Experimental: RT-PCR. In order to examine phase 2 gene induction by CA in PC12h cells and brain lysates, RT-PCR of total RNA from cortical cultures was performed using the following primer pairs (Hosoya et al., J. Bioi. Chern. 29:27244-27250, 2005; Kobayashi et al., Mol. Cell. Biol. 26:221-229, 2006): CypA (89 bp), 5′-ACAGGTCCTGGCATCTTGTC-3′ (SEQ ID NO: 18)(sense) and 5′-[…] -3′ (SEQ ID NO: 19)(antisense); H0-1 (284 bp), 5′-CAGTCGCCTCCAGAGTTTCC -3′ (SEQ ID NO: 20)(sense) and 5′- TACAAGGAGGCCATCACCAGC-3′ (SEQ ID NO: 21)(antisense); GCL-M (280 bp), 5′- CTGCTAAACTGTTCATTGTAGG-3′ (SEQ ID NO: 22)(sense) and 5′- CTA TTG GGT TIT ACC TGT G-3′ (SEQ ID NO: 23)(antisense); GCL-C (213 bp), 5′- GTC TIC AGG TGA ACA TIC CAA GC-3′ (SEQ ID NO: 24)(sense) and 5′- TGTTCTTCAGGGGCTCCAGTC-3′ (SEQ 10 NO: 25)(antisense); and NQO1 (212 bp), 5′- GTG TAC AGC ATI GGC CAC AC-3′ (SEQ 10 NO: 26)(sense) and 5′AAATGATGGCCCACAGAAAG-3′ (SEQ ID NO: 27)(antisense).
Phase 2 enzymes represent an important effector activated by electrophilic-induction of the Keap1/Nrf2 pathway. In order to detect induction of the phase 2 enzymes γ-GCL light chain (GCL-L), γ-GCL heavy chain (GCL-H), HO-1, and NQO1, we performed RT-PCR using mRNA of PC12h cells pretreated with 10 μM CA. The cyclophilin A (CYPA) gene was used as an internal positive control.

[5] = target: T1, bovine serum albumin (BSA) (Bos taurus, UniProt P02769); assay: Adduct formation with free cysteine of BSA (streptavidin blot); assay type: binding; conditions: NEM pretreatment
T1 construct: purchased WAKO Chemicals Inc. (Tokyo, Japan) or Sigma (St. Louis, Mo.)
Experimental: We tested whether the free cysteine of bovine serum albumin (BSA) could form an adduct with NEPP compounds. If carbon #11 on the NEPP compounds binds to this free cysteine of BSA, then pretreatment with N-ethylmaleimide (NEM), in irreversible thiol alkylating agent, would abolish this binding. […] With streptavidin as a probe, we could then detect proteins bound to NEPP6-biotin. In order to study thiols as targets of NEPP binding, BSA (1 μg per lane) was incubated with various concentrations (0-1000 μM) of N-ethylmaleimide (NEM) for 30 minutes at room temperature. Vehicle or NEPP6-biotin (10 μM) in phosphate-buffered saline (PBS) was added and the mixture was incubated at room temperature for 5 h, subjected to sodium dodecyl sulfate polyacrylamide gel electrophoresis (SDS-PAGE), and probed with peroxidase-conjugated streptavidin. The gel was also stained with Coomassie brilliant blue.

[6] = test system: immature cortical neurons; assay: Oxidative stress (glutamate or rotenone) in immature cortical cultures; assay type: cell-based, rat; conditions: CA 3 μM
Excerpt: Primary cortical cultures and assays for two types of glutamate toxicity. Cerebrocortical neurons have been used as an in vitro system in order to investigate the cellular mechanism of neuronal death caused by glutamate. The level of expression of functional NMDA receptors is key for determining whether excitotoxicity or oxidative glutamate toxicity predominates. With increasing days in vitro (DIV), the expression level of these receptors in cortical cultures increases. […] In light of this background information, in the present study, we prepared cerebrocortical cultures from embryonic day 17 (E17) Sprague-Dawley rats and examined them at DIV2 as an experimental system for oxidative glutamate toxicity (Murphy et al., FASEB J. 4:1624-1633, 1990; Lee et al., J. Biol. Chem. 278:37948-37956, 2003). Rotenone, a complex I inhibitor of the mitochondrial electron-transport chain, also induces oxidative stress in immature cortical cultures (Murphy et al., FASEB J. 4:1624-1633, 1990; Lee et al., J. Biol. Chem. 278:37948-37956, 2003).
CA protects cortical neurons via activation of the Keap1/Nrf2 pathway. […] Glutamate (2 mM) and rotenone (300 nM) decreased the number of MAP2 and NeuN-positive cells to 30.8±2.5% and 25.8±1.9% of the control value, respectively. In contrast, CA (3 μM) increased cell survival in the face of these insults to 73.8±3.7% and 80.4±3.4%, respectively.

T1 sequence (P02769 25-607): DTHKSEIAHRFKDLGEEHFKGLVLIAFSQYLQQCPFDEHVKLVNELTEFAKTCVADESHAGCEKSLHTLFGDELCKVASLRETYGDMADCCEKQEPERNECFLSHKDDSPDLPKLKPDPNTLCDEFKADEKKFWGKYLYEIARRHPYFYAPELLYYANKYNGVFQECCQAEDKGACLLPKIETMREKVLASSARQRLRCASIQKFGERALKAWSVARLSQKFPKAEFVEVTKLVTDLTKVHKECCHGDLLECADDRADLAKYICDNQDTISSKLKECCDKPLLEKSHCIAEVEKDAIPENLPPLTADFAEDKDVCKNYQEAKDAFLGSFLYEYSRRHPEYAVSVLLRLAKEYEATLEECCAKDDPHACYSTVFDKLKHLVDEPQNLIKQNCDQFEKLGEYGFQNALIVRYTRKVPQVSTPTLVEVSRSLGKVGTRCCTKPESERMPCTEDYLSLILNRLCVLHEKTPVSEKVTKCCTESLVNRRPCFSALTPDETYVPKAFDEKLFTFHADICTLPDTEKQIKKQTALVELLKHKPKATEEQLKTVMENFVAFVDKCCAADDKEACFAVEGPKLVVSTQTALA

SMILES	activity of p3xCREluc [1]	activity of p3xAP1luc [2]	localization of Nrf2 protein [3]	induction of phase 2 genes [4]	BSA adduct signal after pretreatment with NEM [5]	cell survival (MAP2 and NeuN-positive cells), % of the control value ([6]; glutamate 2 mM, glutamate alone 30.8±2.5%)	cell survival (MAP2 and NeuN-positive cells), % of the control value ([6]; rotenone 300 nM, rotenone alone 25.8±1.9%)
COC(=O)CCCCC/C=C1/C(=O)C=C[C@H]1CCCCCCc1ccc(C)cc1 [NEPP11]	slightly depressed	slightly depressed	–	–	–	–	–
CC(C)c1cc2c(c(O)c1O)[C@@]1(C(=O)O)CCCC(C)(C)[C@@H]1CC2 [CA, carnosic acid]	–	–	translocated into the nucleus	All of the phase 2 genes were induced	depressed the streptavidin signal in a dose-dependent manner	73.8±3.7%	80.4±3.4%
